# Experimental data: patent US20260284074A1, “ENT1 Inhibitors in Combination with Checkpoint Inhibitors” (iTeos Belgium SA, priority 2023, published 2026)
# “Also recorded” adds a separate entry of the source.
# Columns and labels:
# [1] = system: TNF, IFNγ, and granzyme B; test: Cytokine levels in supernatants of dissociated human tumor cell cultures with ATP; format: cell-based; settings: 500 μM ATP; Compound 1 300 nM; culture supernatants
# Procedure: (§1) Human tumors were dissociated, and cells were CFSE-labelled and stimulated with CD3/CD28 microbeads and IL-2 in the presence of 500 μM of ATP as a source of adenosine.
# (§2) Human tumor pieces were rinsed with cold PBS and cut into 1 to 2 mm fragments with a scalpel blade and transferred into GentleMACS C tubes. Dissociation of the tissue was completed with the Tumor Dissociation kit (Miltenyi Biotec) according to the manufacturer's instruction. Briefly, 5 mL of dissociation solution—containing 200 μL of enzyme H, 20 μL of enzyme R and 25 μL of enzyme A and RPMI until 5 mL—was added per gram of tumor. The tube was placed in the gentleMACS dissociator and the 1st program was run. An incubation step of 30 minutes at 37° C. was applied with rotation (MACSmix tube rotator). After this incubation, a quick centrifugation (30×rcf, 1 min) was performed, the supernatant containing dissociated cells was collected in a new tube containing FBS (30% of the total volume with supernatant) and placed at 4° C. […] A short centrifugation was performed, the cells in supernatant were pooled with the 1st collection and filtered through a 100 μm cell strainer which was washed with 10 mL RPMI 10% FBS 2% P/S. After centrifugation at 350×rcf for 10 min, cells were resuspended in 20 mL RPMI 10% FBS 2% P/S and counted with a haemocytometer. […]
# ENT1 [2] = test: ENT1 expression (FIG. 28C); format: cell-based, human
# Procedure: FIGS. 28A, 28B, and 28C show the results of an experiment whereby human tumors were dissociated, and cells were CFSE-labelled and stimulated with CD3/CD28 microbeads and IL-2 in the presence of 500 μM of ATP as a source of adenosine. FIGS. 28A and 28B show data of Compound 1-mediated rescue of CD8+ T cell proliferation and TNF, IFNγ, and granzyme B, respectively, from dissociated tumor cell suspension cultures. Symbols represent each donor, bars are group mean±s.d. One-way RM ANOVA with Tukey's multiple comparisons test.
# [3] = system: tumor infiltrating T cells; test: T cell proliferation in dissociated human tumor cell suspension cultures with ATP; format: cell-based; settings: 500 μM ATP; CD3/CD28 microbeads and IL-2; Compound 1 300 nM; anti-PD-1 10 μg/mL; 3 days
# Procedure: as §1, §2
# ENT1 [4] = target: T1, ENT1 (Homo sapiens, UniProt Q99808); test: ENT1 transport inhibition assay (uridine transport); format: cell-based
# T1 sequence (Q99808 1-456): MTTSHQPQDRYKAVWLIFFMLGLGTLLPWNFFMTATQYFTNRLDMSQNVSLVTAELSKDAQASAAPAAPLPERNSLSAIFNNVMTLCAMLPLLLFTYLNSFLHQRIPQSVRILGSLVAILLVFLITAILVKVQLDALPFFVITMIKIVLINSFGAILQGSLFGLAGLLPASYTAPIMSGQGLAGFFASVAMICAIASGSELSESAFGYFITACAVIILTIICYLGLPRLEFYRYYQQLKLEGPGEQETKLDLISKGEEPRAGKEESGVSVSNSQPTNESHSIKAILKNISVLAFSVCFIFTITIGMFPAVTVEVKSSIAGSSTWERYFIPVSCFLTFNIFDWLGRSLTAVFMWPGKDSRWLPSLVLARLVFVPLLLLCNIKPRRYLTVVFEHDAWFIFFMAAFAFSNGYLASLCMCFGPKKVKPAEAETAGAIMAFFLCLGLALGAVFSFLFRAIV
structure (smiles),measurement,setting,value
"COc1cc(C(=O)O[C@@H]2CCCOc3cc(cc(OC)c3OC)C(=O)NCCCN3CCCN(CC2)CC3)cc(OC)c1OC [Compound 1, (12R)-7^4,7^5-dimethoxy-6-oxo-8-oxa-5-aza-1(1,4)-diazepana-7(1,3)-benzenacyclotetradecaphane-12-yl 3,4,5-trimethoxybenzoate]","Production of TNF, IFNγ, and granzyme B suppressed by ATP",[1],"restored, to varying extents"
same,ENT1 expression,ENT1 [2],suppresses
same,Rescue of T cell proliferation suppressed by ATP,[3],restored; also recorded: partially reversed
same,Potency of inhibition of ENT1-mediated uridine transport (in words),ENT1 [4],nanomolar potency
same,IC50,"ENT1 [4]; read-out: IC50, ENT1 inhibition (ENT1-mediated uridine transport)",2.2 nM
